Assay [1] in a line: Feeding behavior assay: food consumption. The settings on record: injected daily, final concentration 10 nM, 5th instar larvae; days 2 and 4 post-injection vs control (HBM). The assay is classed as in vivo, Bombyx mori. The protocol: Double-stranded RNAs were synthesized using MEGAscript RNAi T7 Kit (Ambion, CA, USA) following the manufacturer’s instructions. Templates for in vitro transcription were generated by PCR using the primers containing the T7 polymerase promoter sequence at their 5′ ends, as listed in Table S1. For each 20-μl reaction, 1 μg PCR product was added as the template. Following transcription, the reaction mixture was purified by phenol/chloroform extraction and ethanol precipitation. The resulting dsRNA products were diluted with nuclease-free water to achieve the desired concentration (final volume of 2–5 μl).
(§1) Synchronized larvae of the first day of 5th instar were chosen for feeding behavior assay. Silkworms were starved for 12 h to standardize the starting level. To knock down bngr-a9, 5 μg dsRNA/BNGR-A9 or dsRNA/EGFP was injected into the abdomen of the larvae at the indicated time using a 10 μl microsyringe. For silkworms, both treated and untreated with dsRNA, synthetic SK peptide (at a final concentration of 10 nM) was injected daily starting from the second day of the fifth instar. For each trial, twenty synchronized P50 larvae were used. After injection, the silkworm larvae were fed with enough mulberry leaves three times a day and maintained under standard conditions. Larval body weights and food consumption were measured every other day until pupation.

A short description of assay [2]: Hemolymph trehalose determination. It counts as in vivo, Bombyx mori. Here is the method:
Silkworm larvae were anesthetized by cooling on ice, after which hemolymph was collected using a micropipette from an incision made at the abdominal leg. Approximately 5 mg of phenylthiourea (to achieve a final concentration of 2.5% w/v) was added to the hemolymph in a 1.5 ml Eppendorf tube to inhibit clotting. Hemolymph samples from 10 insects were then centrifuged at 12,000 rpm for 10 min at 4 °C to sediment any particulates. For trehalose measurement, the hemolymph underwent pretreatment with trehalase (Megazyme, Chicago, US), following the manufacturer’s protocol. Subsequently, the sugar concentration in the hemolymph was assessed using a glucose oxidase–peroxidase kit (Shanghai Rongsheng Biotech, China).

For assay [3], the system named is ERK phosphorylation in silkworm brains. Put plainly: ERK phosphorylation (western blot), silkworm larval brains ex vivo. On the set-up: species or system Bombyx mori. Here is the method: HEK293 cells with Flag-BNGR-A9 were exposed to 100 nM BmsSK for different durations and then lysed using RIPA buffer (Beyotime, China). For ex vivo assays, brains from 5th instar silkworm larvae were treated with BmsSK (100 nM) for 1, 2, or 8 h, either with a pre-treatment of Gαq inhibitor FR900359 for 30 min or without it. After treatment, samples were lysed, homogenized, and their protein concentrations were determined with a BCA protein kit (Takara, Japan). For western blot analysis, equal amounts of protein lysate were used. Protein expression was analyzed using specific primary antibodies: rabbit monoclonal antibodies for total and phosphorylated ERK from Cell Signaling Technology (MA, USA).
(In western blotting, separated proteins are transferred to a membrane and probed.)

The subject of assay [4] is BNGR-A9. Put plainly: cAMP ELISA in BNGR-A9-expressing HEK293 cells. It counts as cell-based, Bombyx mori. As to conditions: 1 μM, 15 min, IBMX pretreatment (300 μM, 1 h). The protocol: 1. Measurement of cAMP accumulation
Cells were seeded in 24-well plates and incubated overnight. Prior to treatment, cells
were pre-treated with the phosphodiesterase inhibitor IBMX (300 μM) for 1 hour.
Subsequently, cells were treated with different Bombyx neuropeptides for 15 minutes.
The reaction was terminated by removing the medium, followed by the addition of
ice-cold PBS and a single wash. Cell lysis was performed, and cAMP formation was
assessed using a competitive binding technique based on an enzyme-linked
immunosorbent assay (ELISA) (Parameter cAMP assay, R&D, Minneapolis, USA)
following the manufacturer's instructions. The results were expressed as the fold
change in cAMP concentration compared to the control concentration in the
2. Determination of Glucose of hemolymph
Silkworm larvae were anesthetized by cooling on ice, after which hemolymph was
collected using a micropipette from an incision made at the abdominal leg.
Approximately 5 mg of phenylthiourea (to achieve a final concentration of 2.5% w/v)
was added to the hemolymph in a 1.5 ml Eppendorf tube to inhibit clotting.
Hemolymph samples from 10 insects were then centrifuged at 12,000 rpm for 10
minutes at 4 °C to sediment any particulates. The glucose concentration in the
hemolymph was determined using a glucose oxidase-peroxidase kit (Shanghai […]
by stimulation with 1μM BmnsSK or BmsSK for 15 min, and the cAMP level was determined […]
(An ELISA detects its analyte on a solid surface through an enzyme-linked reagent.)

A short description of assay [5]: Feeding behavior assay: larval body weight. It counts as in vivo, Bombyx mori. As to conditions: injected daily, final concentration 10 nM, 5th instar larvae, days 2 and 4 post-injection vs control (HBM). The protocol: as §1

Where no end group is shown, it is not given here. [ ]: non-standard residue; d: D form. sY = N[C@@H](Cc1ccc(OS(=O)(=O)O)cc1)C(=O)O

Consider “BmsSK: Bombyx mori sulfated-sulfakinin, synthetic; sulfated version of GDDTFDD^8YGHLRF-NH2 (GDDTFDD[sY]GHLRF-NH2; N-terminus assumed; SMILES CC(C)C[C@H](NC(=O)[C@H](Cc1c[nH]cn1)NC(=O)CNC(=O)[C@H](Cc1ccc(OS(=O)(=O)O)cc1)NC(=O)[C@H](CC(=O)O)NC(=O)[C@H](CC(=O)O)NC(=O)[C@H](Cc1ccccc1)NC(=O)[C@@H](NC(=O)[C@H](CC(=O)O)NC(=O)[C@H](CC(=O)O)NC(=O)CN)[C@@H](C)O)C(=O)N[C@@H](CCCNC(=N)N)C(=O)N[C@@H](Cc1ccccc1)C(N)=O)”, for which the Food consumption result in assay [1] is on record as “notably declined”. In addition, the Hemolymph trehalose level entry in assay [2] (BmsSK final 10 nM, 24 h after EGFP dsRNA injection, hemolymph collected 24 h later) is “significant increase in trehalose levels”; in assay [2] (following BmsSK injection (restated in discussion)) it was “significant rise in circulating hemolymph trehalose”. The “Time of peak ERK1/2 phosphorylation” value in assay [3] (5th instar silkworm brains, 100 nM BmsSK for 1, 2 or 8 h) is 2 h. For the same substance, the ERK1/2 phosphorylation result in assay [3] (silkworm brains, 100 nM BmsSK) was “quick and dose-dependent increase in ERK1/2 phosphorylation”. Besides, the “Intracellular cAMP level” value in assay [4] is “remained unchanged”. The Body weight result in assay [5] is given as “weight loss”; in assay [5] (listed as synthetic sulfated- SK), “notably declined”.

Values taken from paper PMC11190223, “Identification of sulfakinin receptor regulating feeding behavior and hemolymph trehalose homeostasis in the silkworm, Bombyx mori” (Scientific Reports, 2024).
